Data taken from PubChem BioAssay AID248 (DTP/NCI, 2004).
Values joined by “and” are separate entries in the source; they are usually repeats but may differ in a detail not shown here. Equal entries are not always repeated. Toxic doses and inconclusive results are not listed. Cut-off read from the data, not from the text of the source: active = T/C of 150% or more; inactive = T/C below 125%.

Tested on: L1210 leukemia ip in BDF1 mice, survival T/C
Assay: NCI In Vivo Anticancer Drug Screen. Data for tumor model L1210 Leukemia (intraperitoneal) in B6D2F1 (BDF1) mice
Conditions: endpoint: mean survival time, higher = longer survival
Method in brief: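 Tumor cells were implanted, animals were treated, and survival was followed. The result divides the treated measurement by the vehicle-control measurement.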

[1] = dose: 100.0 mg/kg/injection, schedule: Q01DX009 (ip), vehicle: saline with Tween-80
[2] = dose: 100.0 mg/kg/injection, schedule: Q04DX003 (ip), vehicle: saline with Tween-80
[3] = dose: 200.0 mg/kg/injection, schedule: Q01DX009 (ip), vehicle: saline with Tween-80
[4] = dose: 200.0 mg/kg/injection, schedule: Q04DX003 (ip), vehicle: saline with Tween-80
[5] = dose: 400.0 mg/kg/injection, schedule: Q04DX003 (ip), vehicle: saline with Tween-80
[6] = dose: 100.0 mg/kg/injection, schedule: Q01DX009 (ip), vehicle: Klucel (hydroxypropylcellulose) (HPC)
[7] = dose: 200.0 mg/kg/injection, schedule: Q01DX009 (ip), vehicle: Klucel (hydroxypropylcellulose) (HPC)
[8] = dose: 100.0 mg/kg/injection, schedule: Q01DX001 (ip), vehicle: saline
[9] = dose: 100.0 mg/kg/injection, schedule: Q04DX003 (ip), vehicle: Klucel (hydroxypropylcellulose) (HPC)
[10] = dose: 200.0 mg/kg/injection, schedule: Q01DX001 (ip), vehicle: saline
[11] = dose: 200.0 mg/kg/injection, schedule: Q04DX003 (ip), vehicle: Klucel (hydroxypropylcellulose) (HPC)
[12] = dose: 400.0 mg/kg/injection, schedule: Q01DX001 (ip), vehicle: saline
[13] = dose: 400.0 mg/kg/injection, schedule: Q04DX003 (ip), vehicle: Klucel (hydroxypropylcellulose) (HPC)
[14] = dose: 200.0 mg/kg/injection, schedule: Q04DX003 (ip), vehicle: saline
[15] = dose: 400.0 mg/kg/injection, schedule: Q04DX003 (ip), vehicle: saline
[16] = dose: 400.0 mg/kg/injection, schedule: Q01DX009 (ip), vehicle: saline with Tween-80

Measured: T/C

CC1CCCC(CN=Cc2cc([N+](=O)[O-])ccc2O)[N-]1.CC1CCCC(CN=Cc2cc([N+](=O)[O-])ccc2O)[N-]1.[Ni+2] (stereo unspecified)
inactive: [1] 86 % of control | [2] 95 % of control | [3] 86 % of control | [4] 95 % of control | [5] 86 % of control

Cc1cc([N+](=O)[O-])c(NCCOC(=O)c2ccc([N+](=O)[O-])cc2)c([N+](=O)[O-])c1
inactive: [6] 106 % of control | [7] 112 % of control | dose: 400.0 mg/kg/injection, schedule: Q01DX009 (ip), vehicle: Klucel (hydroxypropylcellulose) (HPC) 98 % of control

O=P(Nc1ccccc1)(Nc1ccccc1)Nc1ccccc1
inactive: dose: 50.0 mg/kg/injection, schedule: Q04DX002 (ip), vehicle: gum acacia 95 % of control | dose: 100.0 mg/kg/injection, schedule: Q01DX009 (ip), vehicle: gum acacia 100 % of control | dose: 100.0 mg/kg/injection, schedule: Q04DX002 (ip), vehicle: gum acacia 95 % of control | dose: 200.0 mg/kg/injection, schedule: Q01DX009 (ip), vehicle: gum acacia 97 % of control | dose: 200.0 mg/kg/injection, schedule: Q04DX002 (ip), vehicle: gum acacia 92 % of control | dose: 400.0 mg/kg/injection, schedule: Q01DX009 (ip), vehicle: gum acacia 89 % of control

OCC1OC(n2cnc3c2ncn2nnnc32)C(O)C1O (stereo unspecified)
inactive: dose: 100.0 mg/kg/injection, schedule: Q01DX005 (ip), vehicle: saline 100 % of control | dose: 200.0 mg/kg/injection, schedule: Q01DX005 (ip), vehicle: saline 110 % of control

c1ccc2c3csccc-3nc2c1
inactive: dose: 12.5 mg/kg/injection, schedule: Q01DX009 (ip), vehicle: saline 92 % of control | dose: 25.0 mg/kg/injection, schedule: Q01DX009 (ip), vehicle: saline 98 % of control | dose: 50.0 mg/kg/injection, schedule: Q01DX009 (ip), vehicle: Klucel (hydroxypropylcellulose) (HPC) 94 % of control | dose: 50.0 mg/kg/injection, schedule: Q01DX009 (ip), vehicle: saline 97 % of control | [6] 92 % of control | dose: 100.0 mg/kg/injection, schedule: Q04DX003 (ip), vehicle: acetone 94 % of control and 98 % of control | [7] 92 % of control | dose: 200.0 mg/kg/injection, schedule: Q04DX003 (ip), vehicle: acetone 97 % of control

S=C(Nc1ccccc1)Nc1nccs1
inactive: [8] 104 % of control | [9] 105 % of control | [10] 101 % of control | [11] 101 % of control | [12] 101 % of control | [13] 103 % of control

C1=C(c2ccccc2)CC(/C=C/c2ccccc2)(c2ccccc2)C1c1ccccc1 (stereo unspecified)
inactive: [1] 87 % of control

Cc1ccc(C)c(NC(=O)Nc2c(C)n(C)n(-c3ccccc3)c2=O)c1
inactive: [6] 96 % of control | [9] 97 % of control | [7] 95 % of control | [11] 89 % of control | [13] 93 % of control

CCOC(=N)N1Cc2ccccc2CCc2ccccc2C1
inactive: dose: 6.25 mg/kg/injection, schedule: Q01DX009 (ip), vehicle: Klucel (hydroxypropylcellulose) (HPC) 95 % of control | dose: 12.5 mg/kg/injection, schedule: Q01DX009 (ip), vehicle: Klucel (hydroxypropylcellulose) (HPC) 101 % of control | dose: 25.0 mg/kg/injection, schedule: Q01DX009 (ip), vehicle: Klucel (hydroxypropylcellulose) (HPC) 101 % of control | dose: 25.0 mg/kg/injection, schedule: Q04DX002 (ip), vehicle: Klucel (hydroxypropylcellulose) (HPC) 102 % of control | dose: 50.0 mg/kg/injection, schedule: Q04DX002 (ip), vehicle: Klucel (hydroxypropylcellulose) (HPC) 97 % of control

CCOP(=O)(OCC)C1=C(P(=O)(OCC)OCC)C(F)(F)C1(F)F
inactive: dose: 75.0 mg/kg/injection, schedule: Q01DX001 (ip), vehicle: other 102 % of control

CCOC(=O)c1n[nH]c2ccccc12
inactive: dose: 100.0 mg/kg/injection, schedule: Q04DX002 (ip), vehicle: saline with Tween-80 101 % of control | dose: 200.0 mg/kg/injection, schedule: Q04DX002 (ip), vehicle: saline with Tween-80 106 % of control | dose: 400.0 mg/kg/injection, schedule: Q04DX002 (ip), vehicle: saline with Tween-80 97 % of control

CC1(C)CN(C(C)(C)C)CC(C)(C)C(=O)C1=O
inactive: dose: 50.0 mg/kg/injection, schedule: Q01DX001 (ip), vehicle: saline sonified 91 % of control | dose: 100.0 mg/kg/injection, schedule: Q01DX001 (ip), vehicle: saline sonified 98 % of control | dose: 200.0 mg/kg/injection, schedule: Q01DX001 (ip), vehicle: saline sonified 87 % of control

O=C(O)c1cc(=O)c2c(OCC(O)COc3cccc4oc(C(=O)O)cc(=O)c34)cccc2o1
inactive: [8] 100 % of control | [10] 102 % of control | [12] 94 % of control

CC1CCCCN1 (stereo unspecified)
inactive: dose: 100.0 mg/kg/injection, schedule: Q04DX002 (ip), vehicle: saline 105 % of control | dose: 200.0 mg/kg/injection, schedule: Q04DX002 (ip), vehicle: saline 94 % of control | dose: 400.0 mg/kg/injection, schedule: Q04DX002 (ip), vehicle: saline 112 % of control

CC(=O)C(CCC#N)(CCC#N)CCC#N
inactive: dose: 75.0 mg/kg/injection, schedule: Q01DX009 (ip), vehicle: saline 93 % of control | dose: 150.0 mg/kg/injection, schedule: Q01DX009 (ip), vehicle: saline 95 % of control | [14] 102 % of control | dose: 300.0 mg/kg/injection, schedule: Q01DX009 (ip), vehicle: saline 93 % of control | [15] 87 % of control

CN(Cc1cnc2nc(N)c([N+](=O)[O-])c(N)c2n1)c1ccc(C(=O)NC(CCC(=O)O)C(=O)O)cc1 (stereo unspecified)
inactive: dose: 100.0 mg/kg/injection, schedule: Q04DX002 (ip), vehicle: sodium bicarbonate 89 % of control | dose: 200.0 mg/kg/injection, schedule: Q04DX002 (ip), vehicle: sodium bicarbonate 99 % of control

COc1cc(/C=C2/SC(=S)NC2=O)cc(OC)c1OC
inactive: [1] 96 % of control | [2] 100 % of control | [3] 92 % of control | [4] 100 % of control | [16] 97 % of control | [5] 117 % of control

CCCCCCN1CC1
inactive: dose: 15.0 mg/kg/injection, schedule: Q01DX001 (ip), vehicle: saline 102 % of control | dose: 30.0 mg/kg/injection, schedule: Q01DX001 (ip), vehicle: saline 98 % of control

CCOC(=O)C(C(=O)OCC)=C(C)C
inactive: [1] 95 % of control | [2] 100 % of control | [3] 100 % of control | [4] 100 % of control | [16] 102 % of control | [5] 106 % of control

CC(C)C(C(=O)O)(c1ccccc1)c1ccccc1
inactive: dose: 100.0 mg/kg/injection, schedule: Q04DX003 (ip), vehicle: saline 101 % of control | [14] 103 % of control | [15] 97 % of control

CCCCOC(=O)CN(C)/N=N/c1nc[nH]c1C(=O)OCC
inactive: dose: 25.0 mg/kg/injection, schedule: Q01DX001 (ip), vehicle: Klucel (hydroxypropylcellulose) (HPC) 97 % of control | dose: 25.0 mg/kg/injection, schedule: Q04DX003 (ip), vehicle: Klucel (hydroxypropylcellulose) (HPC) 99 % of control | dose: 50.0 mg/kg/injection, schedule: Q01DX001 (ip), vehicle: Klucel (hydroxypropylcellulose) (HPC) 97 % of control | dose: 50.0 mg/kg/injection, schedule: Q04DX003 (ip), vehicle: Klucel (hydroxypropylcellulose) (HPC) 96 % of control | dose: 100.0 mg/kg/injection, schedule: Q01DX001 (ip), vehicle: Klucel (hydroxypropylcellulose) (HPC) 99 % of control and 104 % of control | [9] 94 % of control

O=C1NC(=S)S/C1=C/c1ccc(/C=C2/SC(=S)NC2=O)cc1
inactive: dose: 50.0 mg/kg/injection, schedule: Q01DX001 (ip), vehicle: carboxymethylcellulose (CMC) 92 % of control | dose: 100.0 mg/kg/injection, schedule: Q01DX001 (ip), vehicle: carboxymethylcellulose (CMC) 94 % of control
